Legend:
[1] = biological target: Ribosomal protein S6 kinase alpha-4 (Homo sapiens) (UniProt O75676); test: Inhibition of human RPS6KA4 at 18.6 nM by HotSpot assay relative to control
[2] = biological target: Dual specificity protein kinase CLK3 (Homo sapiens) (UniProt P49761); test: Inhibition of human CLK3 at 18.6 nM by HotSpot assay relative to control
[3] = biological target: Maternal embryonic leucine zipper kinase (Homo sapiens) (UniProt Q14680); test: Inhibition of human MELK at 18.6 nM by HotSpot assay relative to control
[4] = biological target: Calcium/calmodulin-dependent protein kinase type II subunit beta (Homo sapiens) (UniProt Q13554); test: Inhibition of human CAMK2b at 18.6 nM by HotSpot assay relative to control
[5] = biological target: ALK tyrosine kinase receptor (Homo sapiens) (UniProt Q9UM73); test: Inhibition of human ALK at 18.6 nM by HotSpot assay relative to control
[6] = biological target: MAP/microtubule affinity-regulating kinase 3 (Homo sapiens) (UniProt P27448); test: Inhibition of human MARK3 at 18.6 nM by HotSpot assay relative to control
[7] = biological target: T1, G protein-coupled receptor kinase 3 (Homo sapiens) (UniProt P35626); test: Inhibition of human GRK3 at 18.6 nM by HotSpot assay relative to control
T1 sequence (whole entry): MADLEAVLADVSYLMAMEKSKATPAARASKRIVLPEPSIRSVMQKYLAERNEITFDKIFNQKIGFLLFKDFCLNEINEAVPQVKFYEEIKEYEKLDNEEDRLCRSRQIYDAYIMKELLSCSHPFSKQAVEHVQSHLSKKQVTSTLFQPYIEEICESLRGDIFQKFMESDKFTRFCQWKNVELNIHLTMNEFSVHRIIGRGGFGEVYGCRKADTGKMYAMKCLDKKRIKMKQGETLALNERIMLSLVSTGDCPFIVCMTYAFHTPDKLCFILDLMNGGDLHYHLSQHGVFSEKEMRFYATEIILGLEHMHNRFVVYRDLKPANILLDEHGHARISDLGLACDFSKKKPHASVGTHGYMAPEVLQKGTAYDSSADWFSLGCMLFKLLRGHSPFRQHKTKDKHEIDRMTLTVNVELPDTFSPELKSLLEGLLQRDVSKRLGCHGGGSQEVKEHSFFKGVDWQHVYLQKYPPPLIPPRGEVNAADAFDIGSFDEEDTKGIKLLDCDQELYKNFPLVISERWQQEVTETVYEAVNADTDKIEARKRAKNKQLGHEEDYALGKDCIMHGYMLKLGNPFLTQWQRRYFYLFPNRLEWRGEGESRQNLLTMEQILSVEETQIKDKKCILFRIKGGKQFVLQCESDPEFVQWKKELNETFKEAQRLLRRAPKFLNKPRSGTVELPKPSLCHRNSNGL

[8] = biological target: Tyrosine-protein kinase Fgr (Homo sapiens) (UniProt P09769); test: Inhibition of human FGR at 18.6 nM by HotSpot assay relative to control
[9] = biological target: Mast/stem cell growth factor receptor Kit (Homo sapiens) (UniProt P10721); test: Inhibition of human c-Kit at 1.82 nM by HotSpot assay relative to control
[10] = biological target: Dual specificity mitogen-activated protein kinase kinase 2 (Homo sapiens) (UniProt P36507); test: Inhibition of human MEK2 at 1.82 nM by HotSpot assay relative to control
[11] = biological target: T2, Mitogen-activated protein kinase 12 (Homo sapiens) (UniProt P53778); test: Inhibition of human P38g at 1.82 nM by HotSpot assay relative to control
T2 sequence (whole entry): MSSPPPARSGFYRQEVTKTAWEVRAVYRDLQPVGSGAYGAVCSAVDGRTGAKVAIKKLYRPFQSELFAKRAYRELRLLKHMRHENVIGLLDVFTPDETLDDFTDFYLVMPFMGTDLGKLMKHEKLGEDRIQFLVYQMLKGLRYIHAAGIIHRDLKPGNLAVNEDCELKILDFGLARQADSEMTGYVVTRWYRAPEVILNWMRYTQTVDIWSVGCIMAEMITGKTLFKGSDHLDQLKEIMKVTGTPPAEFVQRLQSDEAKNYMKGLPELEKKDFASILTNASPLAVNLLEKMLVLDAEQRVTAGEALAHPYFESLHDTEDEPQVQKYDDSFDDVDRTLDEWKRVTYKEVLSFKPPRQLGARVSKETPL

[12] = biological target: T3, Inhibitor of nuclear factor kappa-B kinase subunit beta (Homo sapiens) (UniProt O14920); conditions: dose 1.82 nM
T3 sequence (whole entry): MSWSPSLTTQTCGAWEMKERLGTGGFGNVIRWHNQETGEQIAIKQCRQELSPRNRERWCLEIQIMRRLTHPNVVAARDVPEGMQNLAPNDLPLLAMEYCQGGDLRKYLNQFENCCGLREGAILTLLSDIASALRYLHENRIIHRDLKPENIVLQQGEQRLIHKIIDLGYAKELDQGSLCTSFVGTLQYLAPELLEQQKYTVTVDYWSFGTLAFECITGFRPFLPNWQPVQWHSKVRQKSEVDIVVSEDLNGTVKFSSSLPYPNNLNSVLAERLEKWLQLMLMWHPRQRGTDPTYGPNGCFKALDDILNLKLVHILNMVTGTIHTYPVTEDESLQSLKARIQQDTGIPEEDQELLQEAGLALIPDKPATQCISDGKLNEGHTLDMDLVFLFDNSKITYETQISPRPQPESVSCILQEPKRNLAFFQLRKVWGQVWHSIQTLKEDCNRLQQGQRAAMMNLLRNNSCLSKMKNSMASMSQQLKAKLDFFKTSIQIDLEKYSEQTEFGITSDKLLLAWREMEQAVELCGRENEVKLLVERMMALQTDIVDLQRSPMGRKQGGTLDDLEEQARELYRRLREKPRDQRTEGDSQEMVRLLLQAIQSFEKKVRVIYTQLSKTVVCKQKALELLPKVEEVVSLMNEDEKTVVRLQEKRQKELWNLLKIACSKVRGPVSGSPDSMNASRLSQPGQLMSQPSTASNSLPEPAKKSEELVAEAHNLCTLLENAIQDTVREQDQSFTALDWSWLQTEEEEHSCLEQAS
Description: Inhibition of human IKKb at 1.82 nM by HotSpot assay relative to control

[13] = biological target: Serine/threonine-protein kinase Nek4 (Homo sapiens) (UniProt P51957); test: Inhibition of human NEK4 at 1.82 nM by HotSpot assay relative to control
[14] = biological target: Calcium/calmodulin-dependent protein kinase type 1D (Homo sapiens) (UniProt Q8IU85); test: Inhibition of human CAMK1d at 1.82 nM by HotSpot assay relative to control
[15] = biological target: Serine/threonine-protein kinase 10 (Homo sapiens) (UniProt O94804); test: Inhibition of human LOK at 1.82 nM by HotSpot assay relative to control

Chain of ALK tyrosine kinase receptor (Homo sapiens) (Q9UM73 19-1620 limits assumed): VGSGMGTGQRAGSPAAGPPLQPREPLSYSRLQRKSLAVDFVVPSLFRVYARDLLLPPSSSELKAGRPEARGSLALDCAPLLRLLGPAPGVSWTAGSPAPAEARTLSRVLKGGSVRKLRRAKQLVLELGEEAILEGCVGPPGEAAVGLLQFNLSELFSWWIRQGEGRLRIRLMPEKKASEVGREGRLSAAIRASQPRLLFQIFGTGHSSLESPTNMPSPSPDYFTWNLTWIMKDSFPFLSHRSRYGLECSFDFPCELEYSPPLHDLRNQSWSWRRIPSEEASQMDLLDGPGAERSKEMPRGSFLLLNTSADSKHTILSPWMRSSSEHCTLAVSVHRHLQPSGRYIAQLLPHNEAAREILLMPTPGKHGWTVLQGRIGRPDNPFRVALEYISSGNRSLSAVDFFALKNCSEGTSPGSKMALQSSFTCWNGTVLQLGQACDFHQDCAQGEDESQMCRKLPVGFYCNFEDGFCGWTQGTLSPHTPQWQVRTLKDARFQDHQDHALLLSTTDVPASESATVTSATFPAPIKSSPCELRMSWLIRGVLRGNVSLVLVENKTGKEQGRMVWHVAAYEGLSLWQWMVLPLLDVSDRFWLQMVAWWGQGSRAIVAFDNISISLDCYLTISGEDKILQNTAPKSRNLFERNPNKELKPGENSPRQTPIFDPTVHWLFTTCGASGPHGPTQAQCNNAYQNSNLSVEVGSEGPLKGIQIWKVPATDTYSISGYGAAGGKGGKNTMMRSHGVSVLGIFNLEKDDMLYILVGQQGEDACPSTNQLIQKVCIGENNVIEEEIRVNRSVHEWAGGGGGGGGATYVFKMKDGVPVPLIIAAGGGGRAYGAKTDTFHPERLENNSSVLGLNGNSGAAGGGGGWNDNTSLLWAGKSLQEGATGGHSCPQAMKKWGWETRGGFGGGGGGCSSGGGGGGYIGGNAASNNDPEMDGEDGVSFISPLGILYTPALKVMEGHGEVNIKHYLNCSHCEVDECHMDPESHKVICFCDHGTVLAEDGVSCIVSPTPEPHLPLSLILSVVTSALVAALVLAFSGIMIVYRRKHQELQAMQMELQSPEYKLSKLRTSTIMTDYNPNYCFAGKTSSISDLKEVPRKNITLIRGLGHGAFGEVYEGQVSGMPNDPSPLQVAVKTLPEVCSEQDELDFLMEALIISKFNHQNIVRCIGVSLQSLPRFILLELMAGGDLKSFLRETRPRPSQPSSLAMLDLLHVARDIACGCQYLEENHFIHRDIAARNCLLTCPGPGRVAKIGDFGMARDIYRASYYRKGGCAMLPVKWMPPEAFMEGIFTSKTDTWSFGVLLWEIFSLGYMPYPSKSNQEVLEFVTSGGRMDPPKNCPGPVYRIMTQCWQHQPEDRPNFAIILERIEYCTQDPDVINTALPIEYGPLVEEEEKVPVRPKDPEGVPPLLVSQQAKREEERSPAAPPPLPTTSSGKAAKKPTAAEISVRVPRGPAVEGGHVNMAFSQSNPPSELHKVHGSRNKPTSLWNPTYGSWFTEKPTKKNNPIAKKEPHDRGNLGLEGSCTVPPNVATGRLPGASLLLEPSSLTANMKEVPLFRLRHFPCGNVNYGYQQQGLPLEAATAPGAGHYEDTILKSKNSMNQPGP
Chain of Calcium/calmodulin-dependent protein kinase type II subunit beta (Homo sapiens) (Q13554 whole entry): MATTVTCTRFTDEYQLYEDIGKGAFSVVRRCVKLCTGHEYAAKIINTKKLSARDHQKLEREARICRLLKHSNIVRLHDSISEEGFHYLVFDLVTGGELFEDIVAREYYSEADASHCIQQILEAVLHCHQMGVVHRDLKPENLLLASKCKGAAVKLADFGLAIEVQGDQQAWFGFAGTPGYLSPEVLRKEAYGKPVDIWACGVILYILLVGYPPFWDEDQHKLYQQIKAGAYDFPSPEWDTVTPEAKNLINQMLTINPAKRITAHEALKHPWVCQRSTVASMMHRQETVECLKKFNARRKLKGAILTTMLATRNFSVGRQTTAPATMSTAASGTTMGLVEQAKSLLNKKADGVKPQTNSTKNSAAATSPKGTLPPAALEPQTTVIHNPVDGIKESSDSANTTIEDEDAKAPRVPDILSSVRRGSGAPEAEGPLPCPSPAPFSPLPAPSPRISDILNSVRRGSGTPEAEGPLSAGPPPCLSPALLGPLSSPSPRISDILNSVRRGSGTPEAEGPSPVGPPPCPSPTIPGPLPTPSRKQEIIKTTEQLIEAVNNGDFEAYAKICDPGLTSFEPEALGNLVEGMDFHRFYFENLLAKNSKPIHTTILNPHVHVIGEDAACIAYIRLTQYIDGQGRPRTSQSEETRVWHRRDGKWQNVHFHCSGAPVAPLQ
Chain of Ribosomal protein S6 kinase alpha-4 (Homo sapiens) (O75676 whole entry, looked up): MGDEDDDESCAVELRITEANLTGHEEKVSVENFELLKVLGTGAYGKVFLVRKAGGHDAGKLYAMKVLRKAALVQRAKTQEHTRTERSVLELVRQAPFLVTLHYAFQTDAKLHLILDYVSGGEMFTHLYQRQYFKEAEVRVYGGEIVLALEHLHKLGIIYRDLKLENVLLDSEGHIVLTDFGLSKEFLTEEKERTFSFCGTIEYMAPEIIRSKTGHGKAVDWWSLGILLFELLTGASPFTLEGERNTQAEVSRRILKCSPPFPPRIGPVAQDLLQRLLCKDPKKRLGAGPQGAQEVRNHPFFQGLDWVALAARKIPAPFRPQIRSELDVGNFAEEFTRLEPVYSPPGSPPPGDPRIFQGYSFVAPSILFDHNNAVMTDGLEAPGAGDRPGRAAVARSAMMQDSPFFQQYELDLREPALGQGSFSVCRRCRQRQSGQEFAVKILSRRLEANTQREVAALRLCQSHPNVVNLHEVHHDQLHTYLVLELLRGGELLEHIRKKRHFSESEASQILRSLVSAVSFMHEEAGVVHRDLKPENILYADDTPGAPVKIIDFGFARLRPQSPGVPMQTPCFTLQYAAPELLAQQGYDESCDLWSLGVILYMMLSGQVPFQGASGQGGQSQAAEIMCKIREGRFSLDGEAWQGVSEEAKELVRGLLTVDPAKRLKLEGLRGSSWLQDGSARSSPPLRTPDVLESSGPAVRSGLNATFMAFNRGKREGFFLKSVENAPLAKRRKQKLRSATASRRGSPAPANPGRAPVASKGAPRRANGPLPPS
Chain of Mast/stem cell growth factor receptor Kit (Homo sapiens) (P10721 whole entry): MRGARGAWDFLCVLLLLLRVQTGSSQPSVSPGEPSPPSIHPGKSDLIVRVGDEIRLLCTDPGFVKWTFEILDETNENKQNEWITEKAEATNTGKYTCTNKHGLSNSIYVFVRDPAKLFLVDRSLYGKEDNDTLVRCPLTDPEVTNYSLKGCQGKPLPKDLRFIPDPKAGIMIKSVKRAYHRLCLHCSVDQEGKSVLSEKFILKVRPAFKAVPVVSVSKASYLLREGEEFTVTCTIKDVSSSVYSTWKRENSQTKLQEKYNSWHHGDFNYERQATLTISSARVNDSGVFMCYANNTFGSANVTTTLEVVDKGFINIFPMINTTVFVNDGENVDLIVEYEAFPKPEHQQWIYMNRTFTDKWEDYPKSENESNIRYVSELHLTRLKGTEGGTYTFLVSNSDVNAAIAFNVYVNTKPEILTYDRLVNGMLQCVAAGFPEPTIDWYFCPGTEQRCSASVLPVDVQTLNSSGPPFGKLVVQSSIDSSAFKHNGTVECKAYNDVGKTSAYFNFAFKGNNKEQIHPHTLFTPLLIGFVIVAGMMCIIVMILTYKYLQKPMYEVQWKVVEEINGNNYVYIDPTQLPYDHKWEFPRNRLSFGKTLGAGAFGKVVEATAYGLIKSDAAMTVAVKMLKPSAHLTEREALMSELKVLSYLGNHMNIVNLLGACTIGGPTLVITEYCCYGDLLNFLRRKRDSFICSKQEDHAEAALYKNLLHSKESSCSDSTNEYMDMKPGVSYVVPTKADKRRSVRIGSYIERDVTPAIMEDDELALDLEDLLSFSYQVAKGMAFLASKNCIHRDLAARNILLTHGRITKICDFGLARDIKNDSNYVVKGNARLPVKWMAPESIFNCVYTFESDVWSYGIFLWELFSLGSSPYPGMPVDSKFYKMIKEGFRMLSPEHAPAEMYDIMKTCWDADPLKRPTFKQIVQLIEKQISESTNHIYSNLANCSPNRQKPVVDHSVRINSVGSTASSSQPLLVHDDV
Chain of MAP/microtubule affinity-regulating kinase 3 (Homo sapiens) (P27448 whole entry, looked up): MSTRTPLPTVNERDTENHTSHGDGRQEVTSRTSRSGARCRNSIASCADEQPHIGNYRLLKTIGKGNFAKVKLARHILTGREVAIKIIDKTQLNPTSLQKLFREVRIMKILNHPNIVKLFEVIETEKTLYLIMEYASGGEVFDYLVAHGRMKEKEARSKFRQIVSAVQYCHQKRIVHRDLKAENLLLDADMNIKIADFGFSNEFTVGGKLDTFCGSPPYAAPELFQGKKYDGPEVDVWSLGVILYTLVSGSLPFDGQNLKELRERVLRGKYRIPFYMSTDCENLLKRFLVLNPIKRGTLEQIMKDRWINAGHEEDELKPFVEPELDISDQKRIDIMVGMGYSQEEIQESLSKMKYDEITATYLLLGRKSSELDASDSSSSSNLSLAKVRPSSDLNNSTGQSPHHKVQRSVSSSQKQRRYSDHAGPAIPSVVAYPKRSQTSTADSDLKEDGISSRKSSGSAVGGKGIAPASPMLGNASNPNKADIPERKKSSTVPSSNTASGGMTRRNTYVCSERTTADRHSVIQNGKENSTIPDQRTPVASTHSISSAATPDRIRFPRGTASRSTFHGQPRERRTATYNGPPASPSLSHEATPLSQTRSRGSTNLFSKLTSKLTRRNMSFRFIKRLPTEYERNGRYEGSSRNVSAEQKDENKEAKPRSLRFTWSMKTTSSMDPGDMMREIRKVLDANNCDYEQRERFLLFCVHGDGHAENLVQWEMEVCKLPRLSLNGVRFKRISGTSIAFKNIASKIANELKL

SMILES | inhibition [1] | inhibition [2] | inhibition [3] | inhibition [4] | inhibition [5] | inhibition [6] | inhibition [7] | inhibition [8] | inhibition [9] | inhibition [10] | inhibition [11] | inhibition [12] | inhibition [13] | inhibition [14] | inhibition [15]
C[C@]1(O)C[C@@H](c2nc(-c3ccc4ccc(-c5ccccc5)nc4c3)c3c(N)nccn32)C1 | -2.53% | -0.8% | -2.08% | -1.75% | -6.1% | 2.43% | -0.17% | -9.34% |  |  |  |  |  |  | 
C[C@@]1(C(=O)Nc2ccc(F)nc2)CCCN1c1nc(Nc2cc(C3CC3)n[nH]2)c2cccn2n1 |  |  |  |  |  |  |  |  | 2.48% | 1.78% | -4.67% | -5.57% | -3.35% | -3.77% | 12%

Reference: ChEMBL document CHEMBL5653615 (J Biol Chem, 2013)
